In the assay the target is T1, recombinant IRAP (Homo sapiens, UniProt Q9UIQ6).
T1 construct: expressed in transfected cells; host or cells: HEK 293T
As to the kind of experiment: IRAP enzymatic assay (hydrolysis of Leu-MCA). Format: biochemical. The following applies: for Ki: calculated from IC50, substrate Leu-MCA; for IC50: substrate Leu-MCA. The protocol: An in vitro enzymatic assay was used to initially assess IRAP inhibitory activity.
Crude membranes were prepared from HEK 293T cells transfected with IRAP or empty vector, then solubilized in buffer consisting of 50 mM Tris-HCl, 1% Triton X-100, pH 7.4 at 4° C. under agitation over 5 h. After solubilization, the membranes were pelleted by centrifugation at 23,100 g for 15 min at 4° C., and the supernatant was reserved as the source of IRAP activity. The enzymatic activities of recombinant IRAP were determined by the hydrolysis of the synthetic substrate Leu-MCA (Sigma-Aldrich, Missouri, USA) monitored by the release of a fluorogenic product, MCA, at excitation and emission wavelengths of 380 and 440 nm, respectively. Assays were performed in 96-well plates; each well contains between 0.2-10 μg solubilized membrane protein, a range of concentration of substrate in a final volume of 100 μL 50 mM Tris-HCl buffer (pH 7.4). Non-specific hydrolysis of the substrate was corrected by subtracting the emission from incubations with membranes transfected with empty vector. Reactions proceeded at 37° C. for 30 min within a thermostatted FLEX station fluorescence microplate reader (Molecular Devices, Sunnyvale, Calif.). The kinetic parameters (Km and V) were determined by non-linear fitting of the Michaelis-Menten equation (GraphPad Prism, GraphPad Software Inc., CA, USA); final concentrations of Leu-MCA of 15.6 μM-1 mM. Inhibitor constants (Ki) for the competitive inhibitors were calculated from the relationship IC50=[…], where IC50 values were determined over a range of inhibitor concentrations (10^−9 to 10^−4 M). Km values of IRAP for Leu-MCA were determined from the kinetic studies. Binding affinities of the compounds to IRAP were examined by monitoring the inhibition of the hydrolysis of Leu-MCA in the presence of increasing concentrations of the compounds (10^−8 to 10^−3 M). All data obtained were from at least three separate experiments performed in duplicate.
The results for some compounds of Formula (I) are set out below in Tables 2-1 to 2-8. The compounds were obtained commercially (Specs, Interbioscreen Ltd and Chembridge Corporation) or prepared according to the procedures outlined above.

Like-named read-outs stand apart in the source and are kept apart here. Bounds are passed on as bounds.

T1 sequence (Q9UIQ6 whole entry): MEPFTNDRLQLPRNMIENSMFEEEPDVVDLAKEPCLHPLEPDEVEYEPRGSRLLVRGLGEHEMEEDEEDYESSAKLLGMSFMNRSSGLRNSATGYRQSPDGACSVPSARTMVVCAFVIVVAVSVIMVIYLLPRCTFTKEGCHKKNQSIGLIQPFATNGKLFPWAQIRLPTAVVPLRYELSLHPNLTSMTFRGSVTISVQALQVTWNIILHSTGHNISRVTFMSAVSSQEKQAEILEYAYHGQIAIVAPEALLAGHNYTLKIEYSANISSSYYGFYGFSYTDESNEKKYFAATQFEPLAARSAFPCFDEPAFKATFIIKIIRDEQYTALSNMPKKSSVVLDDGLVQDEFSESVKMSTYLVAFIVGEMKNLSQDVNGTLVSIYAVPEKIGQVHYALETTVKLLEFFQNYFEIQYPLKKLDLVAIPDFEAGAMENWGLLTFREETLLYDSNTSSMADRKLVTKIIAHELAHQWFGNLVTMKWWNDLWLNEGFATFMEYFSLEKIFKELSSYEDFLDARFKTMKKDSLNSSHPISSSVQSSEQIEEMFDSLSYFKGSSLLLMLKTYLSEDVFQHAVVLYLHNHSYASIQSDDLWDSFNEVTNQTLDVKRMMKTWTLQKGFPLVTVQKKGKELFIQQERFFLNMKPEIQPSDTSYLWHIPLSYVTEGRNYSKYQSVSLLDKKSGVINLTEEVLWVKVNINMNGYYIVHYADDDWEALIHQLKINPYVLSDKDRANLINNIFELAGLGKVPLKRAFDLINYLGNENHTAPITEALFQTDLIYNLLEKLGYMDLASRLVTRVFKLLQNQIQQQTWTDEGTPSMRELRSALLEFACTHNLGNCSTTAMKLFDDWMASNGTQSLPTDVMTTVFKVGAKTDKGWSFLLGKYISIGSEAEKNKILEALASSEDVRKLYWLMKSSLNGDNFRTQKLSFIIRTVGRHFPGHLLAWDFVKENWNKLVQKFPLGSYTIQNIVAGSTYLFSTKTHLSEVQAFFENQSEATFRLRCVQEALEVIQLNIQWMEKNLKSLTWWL

As for `CCOC(=O)C1=C(C)OC(N)=C(C#N)C1c1cc(Br)c(O)c(OC)c1` (stereo not shown) [Compound 11a], the inhibitory constant (Ki) (in general, a measure of affinity in units of concentration, obtained from inhibition or displacement) (Table 2-1) was 13.7 µM. Further, the IC50 (in general, the point on the concentration scale where inhibition reaches its midpoint) (Table 2-1, read-out: IC50) stood at 23 µM.

On to `CCOC(=O)C1=C(C)OC(N)=C(C#N)C1c1ccc(O)c(OC)c1` (stereo not shown) [Compound 11b], for which the inhibition constant (Ki) (Table 2-1) was 13.1 µM. In addition, the IC50 (Table 2-1, read-out: IC50) worked out at 22 µM.

In the case of `CCOC(=O)C1=C(C)OC(N)=C(C#N)C1c1ccc(O)cc1` (stereo not shown) [Compound 11e], the inhibition constant (Ki) (Table 2-1) was 61.3 µM. The half-maximal inhibitory concentration (IC50) (Table 2-1, read-out: IC50) amounted to 103 µM.

Regarding `CCOC(=O)C1=C(C)OC(N)=C(C#N)C1c1ccc2c(c1)OCO2` (stereo not shown) [Compound 11g], the IC50 (Table 2-1, read-out: IC50) was greater than 50 µM.

For `CCOC(=O)C1=C(C)OC(N)=C(C#N)C1c1cc(OC)c2c(c1)OCO2` (stereo not shown) [Compound 11h], the inhibition constant Ki (Table 2-1) is 37.5 µM. For the same compound, the IC50 (Table 2-1, read-out: IC50) is 63 µM.

Take `CCOC(=O)C1=C(C)OC(N)=C(C#N)C1c1ccc(OC)c(OC)c1` (stereo not shown) [Compound 11i]: under “Table 2-1, read-out: IC50”, the IC50 was greater than 50 µM.

As to `CCOC(=O)C1=C(C)OC(N)=C(C#N)C1c1ccc(C#N)cc1` (stereo not shown) [Compound 11j], the IC50 (Table 2-1, read-out: IC50) was greater than 100 µM.

With `CCOC(=O)C1=C(C)OC(N)=C(C#N)C1c1ccc(C(=O)O)cc1` (stereo not shown) [Compound 11k, 4-(2-Amino-3-cyano-5-(ethoxycarbonyl)-6-methyl-4H-pyran-4-yl)benzoic Acid], under “Table 2-1”, the Ki is 18.4 µM. Further, the IC50 (Table 2-1, read-out: IC50) was determined as 31 µM.

For `CCOC(=O)C1=C(C)OC(N)=C(C#N)C1c1ccc([N+](=O)[O-])cc1` (stereo not shown) [Compound 11l], where the note is “Table 2-1, read-out: IC50”, the half-inhibitory concentration (IC50) was greater than 100 µM.

With `CCOC(=O)C1=C(C)OC(N)=C(C#N)C1c1cccc(C(=O)O)c1` (stereo not shown) [Compound 11m, 3-(2-Amino-3-cyano-5-(ethoxycarbonyl)-6-methyl-4H-pyran-4-yl)benzoic Acid], where the note is “Table 2-1, read-out: IC50”, the half-maximal inhibitory concentration (IC50) was greater than 100 µM.

`CCOC(=O)C1=C(C)OC(N)=C(C#N)C1c1ccc(OC(C)=O)c(C)c1` (stereo not shown) [Compound 11n, Ethyl 4-(4-acetoxy-3-methylphenyl)-6-amino-5-cyano-2-methyl-4H-pyran-3-carboxylate]: the half-inhibitory concentration (IC50) (Table 2-1, read-out: IC50) is greater than 100 µM.

Consider `CCOC(=O)C1=C(C)OC(N)=C(C#N)C1c1cc(C)c(OC(C)=O)c(C)c1` (stereo not shown) [Compound 11o, Ethyl 4-(4-acetoxy-3,5-dimethylphenyl)-6-amino-5-cyano-2-methyl-4H-pyran-3-carboxylate], for which, for the setting “Table 2-1, read-out: IC50”, the IC50 was greater than 100 µM.

Take `CCOC(=O)C1=C(C)OC(N)=C(C#N)C1c1ccc(-c2ccccn2)cc1` (stereo not shown) [Compound 11p, Ethyl 6-amino-5-cyano-2-methyl-4-(4-(pyridin-2-yl)phenyl)-4H-pyran-3-carboxylate]: the IC50 (Table 2-1, read-out: IC50) was greater than 100 µM.

On to `CCOC(=O)C1=C(C)OC(N)=C(C#N)C1c1cccnc1` (stereo not shown) [Compound 11q], for which the 50% inhibitory concentration (IC50) (Table 2-1, read-out: IC50) is greater than 50 µM.

In the case of `CCOC(=O)C1=C(C)OC(N)=C(C#N)C1c1ccncc1` (stereo not shown) [Compound 11r], the 50% inhibitory concentration (IC50) (Table 2-1, read-out: IC50) was greater than 100 µM.

For `CCOC(=O)C1=C(C)OC(N)=C(C#N)C1c1ccc2ccccc2n1` (stereo not shown) [Compound 11s, Ethyl 6-amino-5-cyano-2-methyl-4-(quinolin-2-yl)-4H-pyran-3-carboxylate], the IC50 (Table 2-1, read-out: IC50) is 3 to 40 µM.

Regarding `CCOC(=O)C1=C(C)OC(N)=C(C#N)C1c1cnc2ccccc2c1` (stereo not shown) [Compound 11t, Ethyl 6-amino-5-cyano-2-methyl-4-(quinolin-3-yl)-4H-pyran-3-carboxylate], the half-maximal inhibitory concentration (IC50) (Table 2-1, read-out: IC50) is greater than 100 µM.

Turning to `CCOC(=O)C1=C(C)OC(N)=C(C#N)C1c1ccnc2ccccc12` (stereo not shown) [Compound 11u, Ethyl 6-amino-5-cyano-2-methyl-4-(quinolin-4-yl)-4H-pyran-3-carboxylate], the IC50 (Table 2-1, read-out: IC50) is greater than 100 µM.

In the case of `CCOC(=O)C1=C(CC)OC(N)=C(C#N)C1c1ccc(O)c(OC)c1` (stereo not shown) [Compound 12a], where the note is “Table 2-2”, the inhibitory constant (Ki) is 85.1 µM. Also, the IC50 (Table 2-2, read-out: IC50) came out at 143 µM.

As to `CCOC(=O)C1=C(CC)OC(N)=C(C#N)C1c1ccc(O)c(OCC)c1` (stereo not shown) [Compound 12c], the Ki (Table 2-2) was 67.2 µM. The IC50 (Table 2-2, read-out: IC50) is 113 µM.

Consider `COC(=O)C1=C(C)OC(N)=C(C#N)C1c1ccc(C(=O)O)cc1` (stereo not shown) [Compound 13b, 4-(2-Amino-3-cyano-5-(methoxycarbonyl)-6-methyl-4H-pyran-4-yl)benzoic Acid], for which, for the setting “Table 2-3”, the Ki is 8.3 µM. Further, the IC50 (Table 2-3, read-out: IC50) was determined as 14 µM.

As for `COC(=O)C1=C(C)OC(N)=C(C#N)C1c1ccc(O)cc1` (stereo not shown) [Compound 13c], the concentration for half-maximal inhibition (IC50) (Table 2-3, read-out: IC50) was greater than 100 µM.

Consider `COC(=O)C1=C(C)OC(N)=C(C#N)C1c1ccc(O)c(OC)c1` (stereo not shown) [Compound 13d], for which the Ki (Table 2-3) was 8.3 µM. The IC50 (Table 2-3, read-out: IC50) was found to be 14 µM.

`COc1ccc(C2C(C#N)=C(N)OC(C)=C2C(=O)OCc2ccccc2)cc1OC` (stereo not shown) [Compound 14a]: the Ki (Table 2-4) was 16.7 µM. Also, the IC50 (Table 2-4, read-out: IC50) is 28 µM.

Consider `CC1=C(C(=O)OCc2ccccc2)C(c2ccc(C(=O)O)cc2)C(C#N)=C(N)O1` (stereo not shown) [Compound 14b, 4-(2-Amino-5-(benzyloxycarbonyl)-3-cyano-6-methyl-4H-pyran-4-yl)benzoic Acid], for which, for the setting “Table 2-4”, the inhibition constant (Ki) was 3 µM. Moreover, the IC50 (Table 2-4, read-out: IC50) came out at 5 µM.

In the case of `COC(=O)c1ccc(C2C(C#N)=C(N)OC(C)=C2C(=O)OCc2ccccc2)cc1` (stereo not shown) [Compound 14c], the concentration for half-maximal inhibition (IC50) (Table 2-4, read-out: IC50) lay in the range of 10 to 100 µM.

As for `CC1=C(C(=O)OCc2ccccc2)C(c2ccc(C#N)cc2)C(C#N)=C(N)O1` (stereo not shown) [Compound 14d, Benzyl 6-amino-5-cyano-4-(4-cyanophenyl)-2-methyl-4H-pyran-3-carboxylate], the IC50 (Table 2-4, read-out: IC50) was greater than 100 µM.

With `CC(=O)C1=C(C)OC(N)=C(C#N)C1c1ccc(C(=O)O)cc1` (stereo not shown) [Compound 15a, 4-(3-Acetyl-6-amino-5-cyano-2-methyl-4H-pyran-4-yl)benzoic Acid], the Ki (Table 2-5) was 1.8 µM. The IC50 (Table 2-5, read-out: IC50) fell in the range of 2 to 4 µM.

`CC(=O)C1=C(C)OC(N)=C(C#N)C1c1cccc(C(=O)O)c1` (stereo not shown) [Compound 15b, 3-(3-Acetyl-6-amino-5-cyano-2-methyl-4H-pyran-4-yl)benzoic Acid]: the inhibition constant Ki (Table 2-5) was 3.9 µM. Further, the IC50 (Table 2-5, read-out: IC50) lay within 6 to 7 µM.

Turning to `COc1cc(C2C(C#N)=C(N)OC(C)=C2C(C)=O)ccc1O` (stereo not shown) [Compound 15c], the inhibition constant (Ki) (Table 2-5) was 16.7 µM. Moreover, the half-inhibitory concentration (IC50) (Table 2-5, read-out: IC50) worked out at 28 µM.

For the compound `CC(=O)C1=C(C)OC(N)=C(C#N)C1c1ccc(C#N)cc1` (stereo not shown) [Compound 15d], where the note is “Table 2-5”, the inhibition constant Ki was 59.5 µM.

In the case of `CC(=O)C1=C(C)OC(N)=C(C#N)C1c1ccc2ccccc2n1` (stereo not shown) [Compound 15i, 5-Acetyl-2-amino-6-methyl-4-(quinolin-2-yl)-4H-pyran-3-carbonitrile], the inhibitory constant (Ki) (Table 2-5) is 10.1 µM. Further, the IC50 (Table 2-5, read-out: IC50) was found to be 17 µM.

As for `CC(=O)C1=C(C)OC(N)=C(C#N)C1c1ccc2nccnc2c1` (stereo not shown) [Compound 15j, 5-Acetyl-2-amino-6-methyl-4-(quinoxalin-6-yl)-4H-pyran-3-carbonitrile], the IC50 (Table 2-5, read-out: IC50) was greater than 100 µM.

As for `CC(=O)NC1=C(C#N)C(c2ccc(C(=O)O)cc2)C(C(C)=O)=C(C)O1` (stereo not shown) [Compound 16, 4-(2-Acetamido-5-acetyl-3-cyano-6-methyl-4H-pyran-4-yl)benzoic Acid], the Ki (Table 2-6) is 4.2 µM.

Take `CCOC(=O)C1=C(C)OC(N)=C(C(=O)OCC)C1c1ccc(C(=O)O)cc1` (stereo not shown) [Compound 17a, 4-(2-Amino-3,5-bis(ethoxycarbonyl)-6-methyl-4H-pyran-4-yl)benzoic Acid]: the Ki (Table 2-7) was 4.2 µM. The IC50 (Table 2-7, read-out: IC50) came to 7 µM.

For `COc1cc(C2C(C#N)=C(N)Oc3cc(C)oc(=O)c32)cc(Br)c1O` (stereo not shown) [Compound 18], the half-inhibitory concentration (IC50) (Table 2-8, read-out: IC50 μ) came out at 40 µM.

Source of the values: US11306066B2, “4H-pyran compounds as insulin-regulated aminopeptidase (IRAP) inhibitors” (Monash University, priority 2015, dated 2022).
